Laboratory results as given in patent US20040092428A1, “Oral pharmaceuticals formulation comprising paclitaxel, derivatives and methods of administration thereof” (priority 2001, published 2004).

Molecular target: P-glycoprotein (Homo sapiens, UniProt P08183)
Method: P-glycoprotein inhibition has been determined with an in vitro assay. […] Therefore, the initial pool of compounds screened included excipients that were acceptable for oral or IV use and included PEG in the chemical structure. Compounds were first screened for toxicity in the NIH3T3 cell line and then tested for P-gp inhibition with paclitaxel using the protocol outlined below:
Day 0: Seed cells and incubate.
Day 1: Add potential P-gp inhibitor at fixed concentration and paclitaxel at various concentrations and incubate for 2 days.
Day 3: Add MTT and extraction/lysis buffer.
Day 4: Read absorbance to measure cell growth. Calculate IC50 to determine amount of paclitaxel required for cell death
After calculations of IC50 values, relative rank order of the compounds were determined.

P-glycoprotein, sequence (P08183 whole entry): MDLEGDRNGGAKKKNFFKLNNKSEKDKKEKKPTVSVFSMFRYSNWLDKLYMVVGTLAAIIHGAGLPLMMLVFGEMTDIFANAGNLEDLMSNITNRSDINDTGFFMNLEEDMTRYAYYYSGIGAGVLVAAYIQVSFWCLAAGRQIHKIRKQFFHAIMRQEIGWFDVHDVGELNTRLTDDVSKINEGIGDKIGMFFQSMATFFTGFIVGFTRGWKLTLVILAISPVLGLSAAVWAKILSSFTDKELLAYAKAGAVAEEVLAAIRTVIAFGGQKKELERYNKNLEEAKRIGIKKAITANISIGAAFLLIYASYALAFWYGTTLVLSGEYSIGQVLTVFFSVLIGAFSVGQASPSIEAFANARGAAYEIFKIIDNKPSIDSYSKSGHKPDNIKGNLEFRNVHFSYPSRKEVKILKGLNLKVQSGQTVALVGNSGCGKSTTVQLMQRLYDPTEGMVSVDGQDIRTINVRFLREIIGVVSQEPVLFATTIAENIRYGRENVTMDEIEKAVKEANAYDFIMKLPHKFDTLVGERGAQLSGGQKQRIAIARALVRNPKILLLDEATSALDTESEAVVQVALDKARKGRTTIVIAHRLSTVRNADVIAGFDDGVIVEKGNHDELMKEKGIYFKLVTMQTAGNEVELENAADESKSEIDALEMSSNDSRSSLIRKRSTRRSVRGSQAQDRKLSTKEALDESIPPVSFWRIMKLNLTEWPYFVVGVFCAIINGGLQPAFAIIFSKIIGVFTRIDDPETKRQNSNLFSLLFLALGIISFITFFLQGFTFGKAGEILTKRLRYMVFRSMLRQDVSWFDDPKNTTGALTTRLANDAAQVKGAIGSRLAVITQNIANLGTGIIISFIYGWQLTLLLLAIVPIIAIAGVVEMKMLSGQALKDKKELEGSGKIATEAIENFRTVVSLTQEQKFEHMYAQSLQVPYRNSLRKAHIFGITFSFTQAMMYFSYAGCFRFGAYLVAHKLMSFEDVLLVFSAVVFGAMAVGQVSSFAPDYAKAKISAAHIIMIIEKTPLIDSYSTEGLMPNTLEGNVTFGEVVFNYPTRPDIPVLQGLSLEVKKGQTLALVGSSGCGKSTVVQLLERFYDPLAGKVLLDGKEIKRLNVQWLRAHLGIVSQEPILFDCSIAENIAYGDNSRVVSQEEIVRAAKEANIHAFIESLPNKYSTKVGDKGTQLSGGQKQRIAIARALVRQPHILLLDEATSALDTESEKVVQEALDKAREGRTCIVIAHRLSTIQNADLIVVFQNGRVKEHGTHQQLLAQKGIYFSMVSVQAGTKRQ

Row | Substance | P-gp inhibition measured by an IC50 ratio
1 | polysorbate 80 | > 1.0
2 | PEG-100 stearate | > 1.0
